*1 amine or outer side, *2 acyl side, *3 side chain or, on linkers, in order; H or OH if unused. Where a SMILES comes first, the peptide text is derived from it. Side-chain parts run from the residue outwards. [ ]: non-standard residue; d: D form. The star is where a group is joined. NMePhe(4-NH(5-NH2-Trz-3-yl)) = CN[C@@H](Cc1ccc(Nc2n[nH]c(N)n2)cc1)C(=O)O; Shikimoyl = O=C(C1=C[C@@H](O)[C@@H](O)[C@H](O)C1)*; X5 = O=C(NCCCN*)C1=C[C@@H](O)[C@@H](O)[C@H](O)C1; dPhe(4-Cl) = N[C@H](Cc1ccc(Cl)cc1)C(=O)O; d2Nal = N[C@H](Cc1ccc2ccccc2c1)C(=O)O; Lys(iPr) = CC(C)NCCCC[C@H](N)C(=O)O; NMeY = CN[C@@H](Cc1ccc(O)cc1)C(=O)O; d3Pal = N[C@H](Cc1cccnc1)C(=O)O; Nicotinoyl = O=C(c1cccnc1)*; Picolinoyl = O=C(c1ccccn1)*; CO = O=C([*:1])[*:2]; Ava = NCCCCC(=O)O; azaGly = NNC(=O)O; Sar = CNCC(=O)O
The molecules below were run against T1, LHRH receptor (Rattus norvegicus, UniProt P30969) (assay: in vitro LHRH antagonist potency (pA2) against the agonist leuprolide). Conditions: negative logarithm of the antagonist concentration which shifts the response curve produced by the agonist leuprolide to two-fold higher concentration.
T1 construct: endogenous in cells
T1 sequence (P30969 1-327): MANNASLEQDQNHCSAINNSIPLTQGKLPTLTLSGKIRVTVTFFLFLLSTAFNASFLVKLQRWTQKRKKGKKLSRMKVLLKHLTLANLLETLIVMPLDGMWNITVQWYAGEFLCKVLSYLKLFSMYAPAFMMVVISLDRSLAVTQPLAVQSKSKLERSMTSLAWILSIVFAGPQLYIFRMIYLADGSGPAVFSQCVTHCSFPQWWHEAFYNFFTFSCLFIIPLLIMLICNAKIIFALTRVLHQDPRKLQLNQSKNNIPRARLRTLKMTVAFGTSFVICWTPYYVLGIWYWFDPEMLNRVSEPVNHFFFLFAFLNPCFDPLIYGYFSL
Format: cell-based
How it was run: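 Functional antagonism against the agonist leuprolide. pA2 is the negative log of antagonist concentration that shifts the leuprolide response curve to twofold higher concentration.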

In order of falling Kb:
1. CC(=O)N[C@H](Cc1ccc2ccccc2c1)C(=O)N[C@H](Cc1ccc(Cl)cc1)C(=O)N[C@H](Cc1cccnc1)C(=O)N[C@@H](CO)C(=O)N(C)[C@@H](Cc1ccc(O)cc1)C(=O)N[C@H](CCCCNC(=O)[C@@H](Cc1c[nH]cn1)NC(=O)C1=C[C@@H](O)[C@@H](O)[C@H](O)C1)C(=O)N[C@@H](CC(C)C)C(=O)N[C@@H](CCCNC(=N)N)C(=O)N1CCC[C@H]1C(=O)N[C@H](C)C(N)=O [Example 38e, NAc-D2Nal^1 -D4ClPhe^2 -D3Pal^3 -Ser^4 -NMeTyr^5 -DLys(N-epsilon-DHis-Shikimyl)^6 -Leu^7 -Arg^8 -Pro^9 -DAla^10 NH2] (Ac-[d2Nal][dPhe(4-Cl)][d3Pal]S[NMeY][dK]([dH-Shikimoyl])LRP[dA]-NH2)  0.0437 nM
2. CC(=O)N[C@H](Cc1ccc2ccccc2c1)C(=O)N[C@H](Cc1ccc(Cl)cc1)C(=O)N[C@H](Cc1cccnc1)C(=O)N[C@@H](CO)C(=O)N(C)[C@@H](Cc1ccc(O)cc1)C(=O)N[C@H](CCCCNC(=O)[C@@H](CO)NC(=O)c1ccccn1)C(=O)N[C@@H](CC(C)C)C(=O)N[C@@H](CCCNC(=N)N)C(=O)N1CCC[C@H]1C(=O)N[C@H](C)C(N)=O [Example 48b, NAc-D2Nal^1 -D4ClPhe^2 -D3Pal^3 -Ser^4 -NMeTyr^5 -DLys(N-epsilon-D-Ser-Picolinyl)^6 -Leu^7 -Arg^8 -Pro^9 -DAla^10 NH2] (Ac-[d2Nal][dPhe(4-Cl)][d3Pal]S[NMeY][dK]([dS-Picolinoyl])LRP[dA]-NH2)  0.0372 nM
3. CC(=O)N[C@H](Cc1ccc2ccccc2c1)C(=O)N[C@H](Cc1ccc(Cl)cc1)C(=O)N[C@H](Cc1cccnc1)C(=O)N[C@@H](CO)C(=O)N(C)[C@@H](Cc1ccc(O)cc1)C(=O)N[C@H](CCCCNC(=O)[C@H](NC(=O)C1=C[C@@H](O)[C@@H](O)[C@H](O)C1)[C@H](C)O)C(=O)N[C@@H](CC(C)C)C(=O)N[C@@H](CCCNC(=N)N)C(=O)N1CCC[C@H]1C(=O)N[C@H](C)C(N)=O [Example 48c, NAc-D2Nal^1 -D4ClPhe^2 -D3Pal^3 -Ser^4 -NMeTyr^5 -DLys(N-epsilon-D-Thr-Shikimyl)^6 -Leu^7 -Arg^8 -Pro^9 -DAla^10 NH2] (Ac-[d2Nal][dPhe(4-Cl)][d3Pal]S[NMeY][dK]([dT-Shikimoyl])LRP[dA]-NH2)  0.0288 nM
4. CC(=O)N[C@H](Cc1ccc2ccccc2c1)C(=O)N[C@H](Cc1ccc(Cl)cc1)C(=O)N[C@H](Cc1cccnc1)C(=O)N[C@@H](CO)C(=O)N(C)[C@@H](Cc1ccc(O)cc1)C(=O)N[C@H](CCCCNC(=O)NCCCNC(=O)C1=C[C@@H](O)[C@@H](O)[C@H](O)C1)C(=O)N[C@@H](CC(C)C)C(=O)N[C@@H](CCCNC(=N)N)C(=O)N1CCC[C@H]1C(=O)N[C@H](C)C(N)=O [Example 42, NAc-D2Nal^1 -D4ClPhe^2 -D3Pal^3 -Ser^4 -NMeTyr^5 -DLys[N-epsilon-(N'-Carbonyl-Diaminopropane-N"-Shikimyl)]^6 -Leu^7 -Arg^8 -Pro^9 -DAla^10 NH2] (Ac-[d2Nal][dPhe(4-Cl)][d3Pal]S[NMeY][dK]([CO-X5])LRP[dA]-NH2)  0.0257 nM
5. CC(=O)N[C@H](Cc1ccc2ccccc2c1)C(=O)N[C@H](Cc1ccc(Cl)cc1)C(=O)N[C@H](Cc1cccnc1)C(=O)N[C@@H](CO)C(=O)N(C)[C@@H](Cc1ccc(O)cc1)C(=O)N[C@H](CCCCNC(=O)[C@@H](Cc1cccnc1)NC(=O)C1=C[C@@H](O)[C@@H](O)[C@H](O)C1)C(=O)N[C@@H](CC(C)C)C(=O)N[C@@H](CCCNC(=N)N)C(=O)N1CCC[C@H]1C(=O)N[C@H](C)C(N)=O [Example 38f, NAc-D2Nal^1 -D4ClPhe^2 -D3Pal^3 -Ser^4 -NMeTyr^5 -DLys(N-epsilon-D3Pal-Shikimyl)^6 -Leu^7 -Arg^8 -Pro^9 -DAla^10 NH2] (Ac-[d2Nal][dPhe(4-Cl)][d3Pal]S[NMeY][dK]([d3Pal-Shikimoyl])LRP[dA]-NH2)  0.0214 nM
6. CC(=O)N[C@H](Cc1ccc2ccccc2c1)C(=O)N[C@H](Cc1ccc(Cl)cc1)C(=O)N[C@H](Cc1cccnc1)C(=O)N[C@@H](CO)C(=O)N(C)[C@@H](Cc1ccc(O)cc1)C(=O)N[C@H](CCCCNC(=O)[C@H](NC(=O)C1=C[C@@H](O)[C@@H](O)[C@H](O)C1)[C@H](C)O)C(=O)N[C@@H](CC(C)C)C(=O)N[C@@H](CCCNC(=N)N)C(=O)N1CCC[C@H]1C(=O)N[C@H](C)C(N)=O [Example 38d, NAc-D2Nal^1 -D4ClPhe^2 -D3Pal^3 -Ser^4 -NMeTyr^5 -DLys(N-epsilon-DThr-Shikimyl)^6 -Leu^7 -Arg^8 -Pro^9 -DAla^10 NH2] (Ac-[d2Nal][dPhe(4-Cl)][d3Pal]S[NMeY][dK]([dT-Shikimoyl])LRP[dA]-NH2)  0.02 nM
7. CC(=O)N[C@H](Cc1ccc2ccccc2c1)C(=O)N[C@H](Cc1ccc(Cl)cc1)C(=O)N[C@H](Cc1cccnc1)C(=O)N[C@@H](CO)C(=O)N(C)[C@@H](Cc1ccc(O)cc1)C(=O)N[C@H](CCCCNC(=O)[C@@H](C)NC(=O)C1=C[C@@H](O)[C@@H](O)[C@H](O)C1)C(=O)N[C@@H](CC(C)C)C(=O)N[C@@H](CCCNC(=N)N)C(=O)N1CCC[C@H]1C(=O)N[C@H](C)C(N)=O [Example 48d, NAc-D2Nal^1 -D4ClPhe^2 -D3Pal^3 -Ser^4 -NMeTyr^5 -DLys(N-epsilon-D-Ala-Shikimyl)^6 -Leu^7 -Arg^8 -Pro^9 -DAla^10 NH2] (Ac-[d2Nal][dPhe(4-Cl)][d3Pal]S[NMeY][dK]([dA-Shikimoyl])LRP[dA]-NH2)  0.0126 nM
8. CC(=O)N[C@H](Cc1ccc2ccccc2c1)C(=O)N[C@H](Cc1ccc(Cl)cc1)C(=O)N[C@H](Cc1cccnc1)C(=O)N[C@@H](CO)C(=O)N(C)[C@@H](Cc1ccc(O)cc1)C(=O)N[C@H](CCCCNC(=O)CN(C)C(=O)C1=C[C@@H](O)[C@@H](O)[C@H](O)C1)C(=O)N[C@@H](CC(C)C)C(=O)N[C@@H](CCCNC(=N)N)C(=O)N1CCC[C@H]1C(=O)N[C@H](C)C(N)=O [Example 48f, NAc-D2Nal^1 -D4ClPhe^2 -D3Pal^3 -Ser^4 -NMeTyr^5 -DLys(N-epsilon-Sar-Shikimyl)^6 -Leu^7 -Arg^8 -Pro^9 -DAla^10 NH2] (Ac-[d2Nal][dPhe(4-Cl)][d3Pal]S[NMeY][dK]([Sar-Shikimoyl])LRP[dA]-NH2)  0.0126 nM
9. CC(=O)N[C@H](Cc1ccc2ccccc2c1)C(=O)N[C@H](Cc1ccc(Cl)cc1)C(=O)N[C@H](Cc1cccnc1)C(=O)N[C@@H](CO)C(=O)N(C)[C@@H](Cc1ccc(Nc2n[nH]c(N)n2)cc1)C(=O)N[C@H](CCCCNC(=O)NNC(=O)c1cccnc1)C(=O)N[C@@H](CC(C)C)C(=O)N[C@@H](CCCCNC(C)C)C(=O)N1CCC[C@H]1C(=O)N[C@H](C)C(N)=O [Example 46, NAc-D2Nal^1 -D4ClPhe^2 -D3Pal^3 -Ser^4 -NMePhe(Atz)^5 -DLys(N-epsilon-Azagly-Nicotinyl)^6 -Leu^7 -Lys(N-epsilon-Isopropyl)^8 -Pro^9 -DAla^10 NH2] (Ac-[d2Nal][dPhe(4-Cl)][d3Pal]S[NMePhe(4-NH(5-NH2-Trz-3-yl))][dK]([azaGly-Nicotinoyl])L[Lys(iPr)]P[dA]-NH2)  0.011 nM
10. CC(=O)N[C@H](Cc1ccc2ccccc2c1)C(=O)N[C@H](Cc1ccc(Cl)cc1)C(=O)N[C@H](Cc1cccnc1)C(=O)N[C@@H](CO)C(=O)N(C)[C@@H](Cc1ccc(O)cc1)C(=O)N[C@H](CCCCNC(=O)CCCCNC(=O)c1cccnc1)C(=O)N[C@@H](CC(C)C)C(=O)N[C@@H](CCCCNC(C)C)C(=O)N1CCC[C@H]1C(=O)N[C@H](C)C(N)=O [Example 43, NAc-D2Nal^1 -D4ClPhe^2 -D3Pal^3 -Ser^4 -NMeTyr^5 -DLys(N-epsilon-5-Aminovaleryl-Nicotinyl)^6 -Leu^7 -Lys(N-epsilon-Isopropyl)^8 -Pro^9 -DAla^10 NH2] (Ac-[d2Nal][dPhe(4-Cl)][d3Pal]S[NMeY][dK]([Ava-Nicotinoyl])L[Lys(iPr)]P[dA]-NH2)  0.00851 nM
11. CC(=O)N[C@H](Cc1ccc2ccccc2c1)C(=O)N[C@H](Cc1ccc(Cl)cc1)C(=O)N[C@H](Cc1cccnc1)C(=O)N[C@@H](CO)C(=O)N(C)[C@@H](Cc1ccc(O)cc1)C(=O)N[C@H](CCCCNC(=O)CNC(=O)c1ccccn1)C(=O)N[C@@H](CC(C)C)C(=O)N[C@@H](CCCNC(=N)N)C(=O)N1CCC[C@H]1C(=O)N[C@H](C)C(N)=O [Example 48a, NAc-D2Nal^1 -D4ClPhe^2 -D3Pal^3 -Ser^4 -NMeTyr^5 -DLys(N-epsilon-Gly-Picolinyl)^6 -Leu^7 -Arg^8 -Pro^9 -DAla^10 NH2] (Ac-[d2Nal][dPhe(4-Cl)][d3Pal]S[NMeY][dK]([Gly-Picolinoyl])LRP[dA]-NH2)  0.00794 nM
12. CC(=O)N[C@H](Cc1ccc2ccccc2c1)C(=O)N[C@H](Cc1ccc(Cl)cc1)C(=O)N[C@H](Cc1cccnc1)C(=O)N[C@@H](CO)C(=O)N(C)[C@@H](Cc1ccc(Nc2n[nH]c(N)n2)cc1)C(=O)N[C@H](CCCCNC(=O)CNC(=O)c1cccnc1)C(=O)N[C@@H](CC(C)C)C(=O)N[C@@H](CCCCNC(C)C)C(=O)N1CCC[C@H]1C(=O)N[C@H](C)C(N)=O [Example 45, NAc-D2Nal^1 -D4ClPhe^2 -D3Pal^3 -Ser^4 -NMePhe(Atz)^5 -DLys(N-epsilon-Gly-Nicotinyl)^6 -Leu^7 -Lys(N-epsilon-Isopropyl)^8 -Pro^9 -DAla^10 NH2] (Ac-[d2Nal][dPhe(4-Cl)][d3Pal]S[NMePhe(4-NH(5-NH2-Trz-3-yl))][dK]([Gly-Nicotinoyl])L[Lys(iPr)]P[dA]-NH2)  0.00417 nM
